Holding throughout (assay type): functional
The test system of experiment [1] is Helicobacter pylori. The experiment can be described thus: Antibacterial activity was evaluated against Helicobacter pylori (8007).
In experiment [2] the test system is Helicobacter pylori. The experiment can be described thus: Antibacterial activity was evaluated against Helicobacter pylori (13001).
Experiment [3] deals with Helicobacter pylori. The experiment can be described thus: Antibacterial activity was evaluated against Helicobacter pylori (FP1757).
Experiment [4] relates to Helicobacter pylori. The experiment can be described thus: Antibacterial activity was evaluated against Helicobacter pylori (9005).
In a further experiment the test system is Escherichia coli. The experiment can be described thus: Antibacterial activity was evaluated against Escherichia coli (NIHJ JC-2).
For the next experiment, the system named is Staphylococcus aureus. The experiment can be described thus: Antibacterial activity was evaluated against Staphylococcus aureus (209P JC-1).
The next experiment has as its system Enterococcus faecalis. The experiment can be described thus: Antibacterial activity was evaluated against Enterococcus faecalis (0115).
The next experiment concerns Moraxella catarrhalis. The experiment can be described thus: Antibacterial activity was evaluated against M.(B).catarrhalis (6014).
In a further experiment the test system is Serratia marcescens. The experiment can be described thus: Antibacterial activity was evaluated against Serratia marcescens (3013).

We go through 17 molecules from ChEMBL document CHEMBL1130894, “Discovery of a novel benzyloxyisoquinoline derivative with potent anti-Helicobacter pylori activity” (1998).

Values after ≈ are worked out from the molar mass of the structure shown.

As for `Nc1ccc(Cl)c(COc2cccc3cnccc23)c1Cl`, the MIC with Helicobacter pylori [1], against Helicobacter pylori [2], with Helicobacter pylori [3] and in the experiment with Helicobacter pylori [4] was 0.78 mg/L (≈ 2.44 µM) each time.

As to `CC(=O)Nc1ccc(Cl)c(COc2cccc3cnccc23)c1Cl`, the MIC (commonly the least concentration at which growth counts as inhibited) against Escherichia coli is > 100 mg/L; against Helicobacter pylori [1], 0.025 mg/L (≈ 0.0692 µM); against Staphylococcus aureus it was > 100 mg/L; against Enterococcus faecalis, > 100 mg/L; against Moraxella catarrhalis it was > 100 mg/L; with Helicobacter pylori [2], 0.025 mg/L (≈ 0.0692 µM). In addition, the MIC was 0.0125 mg/L (≈ 0.0346 µM) against Helicobacter pylori [3], > 100 mg/L against Serratia marcescens and 0.05 mg/L (≈ 0.138 µM) in the experiment on Helicobacter pylori [4].

Turning to `CC(=O)Nc1cc(Cl)cc(COc2cccc3cnccc23)c1Cl`, the MIC is 0.39 mg/L (≈ 1.08 µM) against Helicobacter pylori [1], 0.2 mg/L (≈ 0.554 µM) against Helicobacter pylori [2], 0.39 mg/L (≈ 1.08 µM) against Helicobacter pylori [3] and 0.39 mg/L (≈ 1.08 µM) in the experiment with Helicobacter pylori [4].

Consider `CC(=O)Nc1c(Cl)ccc(Cl)c1COc1cccc2cnccc12`, for which the MIC in the experiment on Helicobacter pylori [1], in the experiment with Helicobacter pylori [2], in the experiment on Helicobacter pylori [3] and against Helicobacter pylori [4] was ≥ 12.5 mg/L each time.

Consider `c1cc(OCc2cccc3nonc23)c2ccncc2c1`, for which the MIC with Helicobacter pylori [1] was determined as 0.39 mg/L (≈ 1.41 µM); in the experiment with Helicobacter pylori [2], 0.2 mg/L (≈ 0.721 µM); in the experiment on Helicobacter pylori [3], 0.78 mg/L (≈ 2.81 µM); with Helicobacter pylori [4], 0.78 mg/L (≈ 2.81 µM).

With `Clc1cccc(Cl)c1COc1cccc2cnccc12`, the MIC turned out to be 0.78 mg/L (≈ 2.56 µM) against Helicobacter pylori [1], 0.78 mg/L (≈ 2.56 µM) in the experiment with Helicobacter pylori [2], 0.78 mg/L (≈ 2.56 µM) in the experiment with Helicobacter pylori [3] and 1.56 mg/L (≈ 5.13 µM) in the experiment with Helicobacter pylori [4].

Turning to `Nc1ccc(Cl)c(COc2cccc3cnccc23)c1`, the MIC against Helicobacter pylori [1], against Helicobacter pylori [2], with Helicobacter pylori [3] and in the experiment on Helicobacter pylori [4] was 0.39 mg/L (≈ 1.37 µM) each time.

Consider `CC(=O)Nc1ccc(Cl)c(COc2cccc3cnccc23)c1`, for which the MIC turned out to be 0.78 mg/L (≈ 2.39 µM) against Helicobacter pylori [1], 0.78 mg/L (≈ 2.39 µM) in the experiment with Helicobacter pylori [2], 1.56 mg/L (≈ 4.77 µM) against Helicobacter pylori [3] and 0.78 mg/L (≈ 2.39 µM) against Helicobacter pylori [4].

For the molecule `c1ccc(COc2cccc3cnccc23)cc1`, the MIC against Helicobacter pylori [1] came to 1.56 mg/L (≈ 6.63 µM); with Helicobacter pylori [2], 0.78 mg/L (≈ 3.32 µM); with Helicobacter pylori [3], 1.56 mg/L (≈ 6.63 µM); against Helicobacter pylori [4] it was 1.56 mg/L (≈ 6.63 µM).

As for `O=[N+]([O-])c1ccc(Cl)c(COc2cccc3cnccc23)c1Cl`, the minimal inhibitory concentration (MIC) in the experiment with Helicobacter pylori [1], against Helicobacter pylori [2], against Helicobacter pylori [3] and in the experiment with Helicobacter pylori [4] was 1.56 mg/L (≈ 4.47 µM) throughout.

As to `Nc1cccc(COc2cccc3cnccc23)c1`, the MIC in the experiment on Helicobacter pylori [1] is 1.56 mg/L (≈ 6.23 µM); against Helicobacter pylori [2], 0.78 mg/L (≈ 3.12 µM); in the experiment with Helicobacter pylori [3], 1.56 mg/L (≈ 6.23 µM); against Helicobacter pylori [4] it was 1.56 mg/L (≈ 6.23 µM).

`Oc1cccc2cnccc12`: the minimum inhibitory concentration (MIC) against Helicobacter pylori [1] stood at 25 mg/L (≈ 172 µM); against Helicobacter pylori [2] it was 25 mg/L (≈ 172 µM); against Helicobacter pylori [3], 50 mg/L (≈ 344 µM); against Helicobacter pylori [4] it was 50 mg/L (≈ 344 µM).

Consider `Nc1cccc(COc2cccc3cnccc23)c1Cl`, for which the MIC in the experiment with Helicobacter pylori [1] came out at 0.39 mg/L (≈ 1.37 µM); with Helicobacter pylori [2] it was 0.2 mg/L (≈ 0.702 µM); with Helicobacter pylori [3], 0.78 mg/L (≈ 2.74 µM); against Helicobacter pylori [4], 0.39 mg/L (≈ 1.37 µM).

For the molecule `CC(=O)Nc1cccc(COc2cccc3cnccc23)c1Cl`, the MIC in the experiment with Helicobacter pylori [1], in the experiment on Helicobacter pylori [2], against Helicobacter pylori [3] and against Helicobacter pylori [4] was 0.39 mg/L (≈ 1.19 µM) in each case.

`CC(=O)Nc1cccc(COc2cccc3cnccc23)c1`: the MIC in the experiment with Helicobacter pylori [1] is 0.78 mg/L (≈ 2.67 µM); against Helicobacter pylori [2], 0.78 mg/L (≈ 2.67 µM); against Helicobacter pylori [3] it was 1.56 mg/L (≈ 5.34 µM); in the experiment on Helicobacter pylori [4], 0.78 mg/L (≈ 2.67 µM).

`CC1(C)S[C@@H]2[C@H](NC(=O)[C@H](N)c3ccc(O)cc3)C(=O)N2[C@H]1C(=O)O` [AMOXICILLIN]: the MIC stood at 3.13 mg/L (≈ 8.57 µM) in the experiment on Escherichia coli; 0.1 mg/L (≈ 0.274 µM) in the experiment with Helicobacter pylori [1]; 0.05 mg/L (≈ 0.137 µM) in the experiment on Staphylococcus aureus; 0.39 mg/L (≈ 1.07 µM) against Enterococcus faecalis; 0.39 mg/L (≈ 1.07 µM) against Moraxella catarrhalis; 0.025 mg/L (≈ 0.0684 µM) against Helicobacter pylori [2]. The values for the MIC in the experiment with Helicobacter pylori [3], with Serratia marcescens and against Helicobacter pylori [4] were 0.025 mg/L (≈ 0.0684 µM), > 100 mg/L and 0.1 mg/L (≈ 0.274 µM), respectively.

With `CC[C@H]1OC(=O)[C@H](C)[C@@H](O[C@H]2C[C@@](C)(OC)[C@@H](O)[C@H](C)O2)[C@H](C)[C@@H](O[C@@H]2O[C@H](C)C[C@H](N(C)C)[C@H]2O)[C@](C)(OC)C[C@@H](C)C(=O)[C@H](C)[C@@H](O)[C@]1(C)O` [CLARITHROMYCIN], the MIC was 100 mg/L (≈ 134 µM) against Escherichia coli; 0.05 mg/L (≈ 0.0668 µM) in the experiment with Helicobacter pylori [1]; 0.1 mg/L (≈ 0.134 µM) in the experiment on Staphylococcus aureus; 0.2 mg/L (≈ 0.267 µM) against Enterococcus faecalis; < 0.025 mg/L against Moraxella catarrhalis; 0.05 mg/L (≈ 0.0668 µM) in the experiment with Helicobacter pylori [2]. The values for the MIC against Helicobacter pylori [3], with Serratia marcescens and in the experiment with Helicobacter pylori [4] were 0.05 mg/L (≈ 0.0668 µM), 100 mg/L (≈ 134 µM) and 0.1 mg/L (≈ 0.134 µM), respectively.
